Experimental data: patent publication US20240423961A1, “1H-1,2,3-TRIAZOLE-4-CARBOXYLIC ACIDS FOR TREATMENT OF HYPEROXALURIA AND KIDNEY STONES” (CANTERO THERAPEUTICS, INC., priority 2021, published 2024)

Tests used:
[1] = Phase 1 SAD/MAD study: safety and tolerability (adverse events, vital signs, ECG, laboratory tests); assay type: in vivo, human
Procedure: A Phase 1 clinical study is performed to assess the safety and dosing of Compound 1a. This Phase 1 study consists of two parts. In Part A, healthy adults randomized 3:1 (active:placebo) receive a single dose of orally administered Compound 1a or matching placebo in six (6) ascending dose groups. In Part B, healthy adults randomized 3:1 (active:placebo) received multiple doses of orally administered Compound 1a or matching placebo in six (6) ascending dose groups. Safety and tolerability were assessed by the incidence of adverse events, vital signs, electrocardiograms, and clinical laboratory tests. Pharmacokinetics and pharmacodynamics (changes in plasma and urine glycolate) were measured using validated bioanalytical assays.
Study Design: The study was approved by the Advarra Institutional Review Board (Columbia, MD). All participants provided written informed consent. The trial was conducted at a single center (Celerion, Tempe, Arizona) according to the Good Clinical Practice guidelines of the International Conference on Harmonization and the World Health Organization Declaration of Helsinki. The study was a randomized, double-blind, placebo-controlled, single and multiple ascending dose study. The primary objective of the study was to evaluate the safety and tolerability of single and multiple doses of Compound 1a administered to healthy adult volunteers. The secondary objectives were to characterize the pharmacokinetics (PK) of Compound 1a and to describe the pharmacodynamic (PD) properties in healthy adult volunteers. The study also evaluated the effect of food on the PK of Compound 1a.
Subject disposition: Six cohorts of 6 to 8 subjects each (N=up to 48) were administered single doses of 40, 120, 360, 1,000, 2,000, and 3,000 mg of Compound 1a in Part A under fasting conditions. Following a 2-week washout, subjects in the 1,000 mg cohort were administered a second 1,000 mg single dose following a high-fat breakfast. Six cohorts of 8 healthy subjects each were administered multiple doses of 75 mg […] (qd), 125 mg every 12 hours (q12 h), 500 mg q12 h, 500 mg qd, 750 mg qd, and 1,000 mg qd for 7 days in the MAD Part B (FIG. 1).

glycolate oxidase (GO) [2] = biological target: T1, glycolate oxidase (GO) (Homo sapiens, UniProt Q9UJM8); assay: Phase 1 SAD/MAD study: plasma glycolate as measure of target engagement; assay type: in vivo
T1 construct: healthy adult volunteers received single doses of Compound 1a; from tissue; host or cells: liver of healthy adult human volunteers (in vivo, Phase 1 study)
T1 sequence (Q9UJM8 1-370): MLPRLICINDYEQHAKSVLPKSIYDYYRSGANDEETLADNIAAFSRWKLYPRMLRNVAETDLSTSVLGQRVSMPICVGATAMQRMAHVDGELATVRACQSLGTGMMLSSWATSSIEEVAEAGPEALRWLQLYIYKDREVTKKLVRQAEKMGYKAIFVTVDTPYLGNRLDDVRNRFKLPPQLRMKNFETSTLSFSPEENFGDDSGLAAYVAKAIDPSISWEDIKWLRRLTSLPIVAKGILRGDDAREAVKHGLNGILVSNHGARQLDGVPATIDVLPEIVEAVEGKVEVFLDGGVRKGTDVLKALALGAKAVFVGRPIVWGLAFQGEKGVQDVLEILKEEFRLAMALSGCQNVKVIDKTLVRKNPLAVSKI
Procedure: Pharmacodynamics: Acidified human K2-EDTA plasma samples were analyzed for oxalic acid and glycolic acid by a validated method over a range of 8.00 to 120 μM for oxalic acid and 5.00 to 625 μM for glycolic acid based on the analysis of 50 μL of sample. Human plasma containing oxalic acid, glycolic acid and internal standards, ^13C2-oxalic acid and D2-glycolic acid, was derivatized after protein precipitation then extracted using liquid-liquid extraction and analyzed by a Sciex API 4000 LC-MS-MS equipped with an HPLC column. The peak area of the m/z 224.1→152.1 oxalic acid product ion was measured against the peak area of the m/z 226.1→152.1 13C2-oxalic acid internal standard product ion. The peak area of the m/z 210.1→107.0 glycolic acid product ion was measured against the peak area of the m/z 212.1→107.0 D2-glycolic acid internal standard product ion. Quantitation was performed using a weighted 1/x2 linear least squares regression analysis generated from calibration standards prepared on the day of extraction.
Pharmacodynamics of Compound 1a: As a measure of target engagement, plasma glycolate levels were assessed in Part A and Part B. In Part A, healthy adult volunteers received single doses of Compound 1a at 40, 120, 360, 1,000, 2,000, and 3,000 mg with increases in plasma glycolate observed (FIG. 3A). At all doses, mean maximal plasma glycolate concentrations exceeded the upper limit of normal (ULN) of 14 μM, reaching a mean maximum concentration of >90 μM at doses above 1,000 mg, which was sustained for 24 hours. Median time to recovery (plasma glycolate less than or equal to ULN) after a single dose was less than 72 hours.
In Part B, healthy adult volunteers received multiple doses of Compound 1a at 75 mg qd, 125 mg q12 h, 500 mg q12 h, 500 mg qd, 750 mg qd, and 1000 mg qd. As with Part A, mean maximal plasma glycolate concentrations exceeded the ULN at all doses on day 1 to a range of 50 to 100 μM and further increased on day 7 to a range of 100 to 200 μM.

glycolate oxidase (GO) [3] = biological target: T1, glycolate oxidase (GO); assay: Pharmacokinetic-pharmacodynamic (PK/PD) modeling of GO inhibition; conditions: PK/PD modeling of Phase 1 data
Source text: This study provides dosing and safety information for Compound 1a in patients with PH1 and recurrent stone formers with hyperoxaluria due to hepatic overproduction of oxalate. Pharmacokinetic data supports once daily administration of Compound 1a and rapid onset of action. […] Details of the study are presented in Example 2.

[4] = Part A single ascending dose, 40 mg (n = 7)
[5] = Part A single ascending dose, 120 mg (n = 8)
[6] = Part A single ascending dose, 360 mg (n = 6)
[7] = Part A single ascending dose, 1,000 mg (n = 8)
[8] = Part A single ascending dose, 2,000 mg (n = 8)
[9] = Part B multiple ascending dose, 125 mg q12 h (n = 8)
[10] = Part B multiple ascending dose, 500 mg q12 h (n = 8)
[11] = Part B multiple ascending dose, 500 mg qd (n = 8)
[12] = Part A, single doses above 1,000 mg

O.O=C([O-])c1nn[nH]c1Oc1ccc(-c2ccc(C3CC(F)(F)C3)cc2)cc1.[Na+] [Compound 1a, sodium 5-((4′-(3,3-difluorocyclobutyl)-[1,1′-biphenyl]-4-yl)oxy)-1H-1,2,3-triazole-4-carboxylate monohydrate]
AEs leading to study discontinuation ([1]; Part A and Part B): no AEs leading to study discontinuation
dose-limiting toxicities ([1]; Part A and Part B): No dose-limiting toxicities were observed
intensity of AEs ([1]; Part A and Part B): all were mild to moderate in intensity
post dose electrocardiogram findings ([1]; Part A and Part B): nor were there clinically important post dose electrocardiogram findings
safety laboratory tests ([1]; Part A and Part B): no clinically significant changes or trends observed
serious or severe AEs ([1]; Part A and Part B): No serious or severe AEs were reported
AEs [1, 4]: 10
SAEs [1, 4]: 0
AEs [1, 5]: 1
SAEs [1, 5]: 0
AEs [1, 6]: 0
SAEs [1, 6]: 0
AEs [1, 7]: 4
SAEs [1, 7]: 0
AEs [1, 8]: 3
SAEs [1, 8]: 0
AEs [1, 9]: 6
SAEs [1, 9]: 0
AEs [1, 10]: 12
SAEs [1, 10]: 0
AEs [1, 11]: 1
SAEs [1, 11]: 0
tolerability ([1]; single doses up to 3,000 mg and multiple doses up to 2,000 mg per day (1,000 mg qd)): well tolerated
time to inhibition of glycolate oxidase (GO) with increased plasma glycolate concentrations (glycolate oxidase (GO) [2]; FIG. 3 legend): ≤ 2 h
mean maximal plasma glycolate concentrations (exceeded ULN) (glycolate oxidase (GO) [2]; Part A, all single doses 40 to 3,000 mg): > 14 µM
duration for which mean maximum plasma glycolate concentration was sustained (glycolate oxidase (GO) [2]; [12]): 24 h
mean maximum plasma glycolate concentration (glycolate oxidase (GO) [2]; [12]): > 90 µM
levels of plasma glycolate compared with lumasiran (glycolate oxidase (GO) [2]; Part B, all doses): significantly higher than those observed with lumasiran at 3 mg/kg or 6 mg/kg
Median time to recovery (plasma glycolate less than or equal to ULN) (glycolate oxidase (GO) [2]; after a single dose): less than 72 hours
plasma glycolate concentrations at steady state (glycolate oxidase (GO) [2]; steady state, multiple doses): comparable to those measured in case reports of individuals with germline HAO1 knockout
inhibition of GO (glycolate oxidase (GO) [3]): up to 97%
